# Source: patent US9234178B2, “Differentiation of human pluripotent stem cells” (Janssen Biotech, Inc., priority 2008, dated 2016)
# Tests used:
# Assay type in all cases: cell-based, human
# [1] = system: insulin-producing cells; test: Kinetics of CDK inhibitor-induced MAFA expression, PCR (Example 6)
# Experimental: (§1) DMEM/F12+1% B27 for seven days (Stage 6), then • g. Treatment with Accutase for 5 minutes, followed by scraping to remove any remaining attached cells. The cell suspension was then passed through a 40 μm cell strainer. The cells retained on the strainer were removed by rinsing in basal media and cultured in suspension on Ultra-Low culture plates in DMEM-High Glucose (Catalogue#11995-073, Invitrogen, Ca)+1% B27+20 ng/ml of activin A (AA) 2 μm of CDK inhibitor III (Catalog#217714, Calbiochem, Ca) for 1-8 days (Stage 7).
# Samples were collected for PCR analysis at days 1, 2, 3, and 4.
# [2] = system: islet-like clusters; test: CDK inhibitor III treatment of islet-like clusters in suspension (Stage 7): PCR and dithizone staining (Example 4); conditions: 1 μm
# Experimental: The medium was changed daily.
# After stage 6, the cells were treated for 5 mins at room temperature with 1× accutase (Sigma, Mo.). The accutase was removed, and DMEM/12+1% B27 was added to the cells. The attached cells were removed using a cell scarper and gently resuspended and passed through a 40 μm cell strainer. The cells retained on the strainer were removed by rinsing in basal media and cultured in suspension on Ultra-Low culture plates (Catalogue#3471, Corning, Ma). […] Cells treated with vehicle were included as controls. Samples were collected at days 7 through 10 for PCR analysis and dithizone staining. The cells cultured in suspension according to the methods outlined in this example assumed a morphology similar to pancreatic islet clusters.
# [3] = system: insulin-producing cells; test: FACS analysis of insulin producing cells (Example 5); conditions: 1 μM for 5 days
# Experimental: as §1, with “(AA) 1” for “(AA) 2”, “for 5” for “for 1-8”
# Islet-like clusters were dispersed into single cells using TrypLE Express (Invitrogen, Carlsbad, Calif.) and washed in cold PBS. For fixation, the cells were resuspended in 200-300 μl Cytofix/Cytoperm Buffer (BD 554722, BD, Ca) and incubated for 30 min at 4° C. Cells were washed two times in 1 ml Perm/Wash Buffer Solution (BD 554723) and resuspended in 100 μl staining/blocking solution containing 2% normal goat serum in Perm/Wash buffer. For flow cytometric analysis, cells were stained with the following primary antibodies: Anti-Insulin (Rabbit mAb, Cell Signaling No. C279; 1:100 dilution); Anti-Glucagon (Mouse Mab, Sigma No. G2654, 1:100); Anti-Synaptophysin (Rabbit Polyclonal antibody, DakoCytomation No A0010, 1:50). […] Cells were washed at least once in Perm/Wash buffer and analyzed using BD FACSArray. […]
# [4] = 2 μm, days 1-4 of stage 7, increased as a function of time
# [5] = four days after removal of the compound
# [6] = Stage 7, days 7 through 10, PCR
smiles,measurement,setting,value
"Nc1nc(Nc2ccc(S(N)(=O)=O)cc2)nn1C(=S)Nc1c(F)cccc1F [PubChem ID#5330812, 5-Amino-3-((4-(aminosulfonyl)phenyl)amino)-N-(2,6-difluorophenyl)-1H-1,2,4-triazole-1-carbothioamide]",MAFA expression,[1]; [4],significant increase
same,insulin expression,[1]; [4],significant increase
same,MAFA expression after removal of CDK inhibitor,[1]; [5],significant drop
same,insulin expression after removal of CDK inhibitor,[1]; [5],significant drop
same,expression of markers associated with the pancreatic endocrine lineage,[2]; [6],increased the expression
same,expression of the pro-insulin transcription factor MAFA,[2]; [6],increased the expression
same,dithazone (DTZ) staining of clusters,"[2]; Stage 7, versus untreated clusters",more reddish staining pattern
same,percentage of poly hormonal (insulin and glucagon positive) cells,"[3]; Stage 7, versus vehicle",decreased
same,single hormonal insulin positive cells,"[3]; Stage 7, vehicle 3%",8%
